Earlier results on one molecule are cited in US8859624B2, “Stable rasagiline composition” (Chongqing Pharmaceutical Research Institute Co., Ltd., priority 2009, dated 2014).

The conditions of the data set: taking food after oral administration.

On to `C#CCN[C@@H]1CCc2ccccc21` [Rasagiline, rasagiline], for which the “decrease of blood drug concentration” value was 60%.
